Organism: Rattus norvegicus
Assay: Open TG-GATES - Regimen: Single
Type: toxicity, organism-based, Sprague-Dawley
Parameters: regimen Single, gender Male, age 6 weeks
Conditions: in vivo, po, 25 mg/kg, route gavage, dose level Low; for APTT / Bas / Eos / Fbg / Hb / Ht / Lym / MCH / MCHC / MCV / Mono / Neu / PT / Plat / RBC / Ret / WBC: tissue Blood; for KIDNEY_L / KIDNEY_R / KIDNEY_TOTAL: tissue Kidney; for LIVER: tissue Liver; for A/G / ALP / ALT / AST / BUN / CRE / Ca / Cl / DBIL / GLC / IP / K / LDH / Na / PL / RALB / TBIL / TC / TG / TP / gamma-GTP: tissue Plasma

SMILES: CCSCC[C@H](N)C(=O)O [ETHIONINE]
- TERMINAL_BW (3 h): 217.8 g
- APTT (3 h): 19.1 s
- Bas (3 h): 0%
- Eos (3 h): 1.2%
- Fbg (3 h): 211.4 mg/dL
- Hb (3 h): 13.1 g/dL
- Ht (3 h): 38.9%
- Lym (3 h): 83.4%
- MCH (3 h): 21.1 pg
- MCHC (3 h): 33.5%
- MCV (3 h): 62.9 fL
- Mono (3 h): 2.4%
- Neu (3 h): 12.2%
- PT (3 h): 12.4 s
- Plat (3 h): 120.2 x10_4/uL
- RBC (3 h): 619.2 x10_4/ul
- Ret (3 h): 6.9%
- WBC (3 h): 89.8 x10_2/uL
- KIDNEY_L (3 h): 0.9 g
- KIDNEY_R (3 h): 0.9 g
- KIDNEY_TOTAL (3 h): 1.9 g
- LIVER (3 h): 10.1 g
- A/G (3 h): 1.6
- ALP (3 h): 855.8 IU/L
- ALT (3 h): 33 IU/L
- AST (3 h): 66 IU/L
- BUN (3 h): 11.2 mg/dL
- CRE (3 h): 0.4 mg/dL
- Ca (3 h): 10.5 mg/dL
- Cl (3 h): 101.8 meq/L
- DBIL (3 h): 0.056 mg/dL
- GLC (3 h): 202.4 mg/dL
- IP (3 h): 9.7 mg/dL
- K (3 h): 4 meq/L
- LDH (3 h): 212.6 IU/L
- Na (3 h): 140.4 meq/L
- PL (3 h): 138.4 mg/dL
- RALB (3 h): 3.2 g/dL
- TBIL (3 h): 0.1 mg/dL
- TC (3 h): 77.8 mg/dL
- TG (3 h): 61.2 mg/dL
- TP (3 h): 5.2 g/dL
- gamma-GTP (3 h): 1 IU/L
- TERMINAL_BW (6 h): 214.9 g
- APTT (6 h): 19.4 s
- Bas (6 h): 0%
- Eos (6 h): 1%
- Fbg (6 h): 210.6 mg/dL
- Hb (6 h): 13.3 g/dL
- Ht (6 h): 39.1%
- Lym (6 h): 82%
- MCH (6 h): 21.4 pg
- MCHC (6 h): 33.9%
- MCV (6 h): 62.9 fL
- Mono (6 h): 2.4%
- Neu (6 h): 14%
- PT (6 h): 12.7 s
- Plat (6 h): 118.7 x10_4/uL
- RBC (6 h): 620.4 x10_4/ul
- Ret (6 h): 6.7%
- WBC (6 h): 82.3 x10_2/uL
- KIDNEY_L (6 h): 1 g
- KIDNEY_R (6 h): 1 g
- KIDNEY_TOTAL (6 h): 2 g
- LIVER (6 h): 9.3 g
- A/G (6 h): 1.6
- ALP (6 h): 885.2 IU/L
- ALT (6 h): 31.4 IU/L
- AST (6 h): 63.8 IU/L
- BUN (6 h): 9.4 mg/dL
- CRE (6 h): 0.4 mg/dL
- Ca (6 h): 10.2 mg/dL
- Cl (6 h): 102.8 meq/L
- DBIL (6 h): 0.058 mg/dL
- GLC (6 h): 191.2 mg/dL
- IP (6 h): 9.5 mg/dL
- K (6 h): 3.8 meq/L
- LDH (6 h): 224.2 IU/L
- Na (6 h): 139.6 meq/L
- PL (6 h): 126.8 mg/dL
- RALB (6 h): 3.2 g/dL
- TBIL (6 h): 0.1 mg/dL
- TC (6 h): 66.4 mg/dL
- TG (6 h): 52.6 mg/dL
- TP (6 h): 5.2 g/dL
- gamma-GTP (6 h): 1.6 IU/L
- TERMINAL_BW (9 h): 212.9 g
- APTT (9 h): 18.9 s
- Bas (9 h): 0%
- Eos (9 h): 1%
- Fbg (9 h): 228.2 mg/dL
- Hb (9 h): 13.4 g/dL
- Ht (9 h): 39.3%
- Lym (9 h): 71%
- MCH (9 h): 21.3 pg
- MCHC (9 h): 34%
- MCV (9 h): 62.6 fL
- Mono (9 h): 2.2%
- Neu (9 h): 25.4%
- PT (9 h): 12.6 s
- Plat (9 h): 125.9 x10_4/uL
- RBC (9 h): 629.2 x10_4/ul
- Ret (9 h): 6.8%
- WBC (9 h): 95.5 x10_2/uL
- KIDNEY_L (9 h): 0.9 g
- KIDNEY_R (9 h): 0.9 g
- KIDNEY_TOTAL (9 h): 1.8 g
- LIVER (9 h): 9 g
- A/G (9 h): 1.6
- ALP (9 h): 842.8 IU/L
- ALT (9 h): 33.2 IU/L
- AST (9 h): 69.6 IU/L
- BUN (9 h): 11.2 mg/dL
- CRE (9 h): 0.3 mg/dL
- Ca (9 h): 10.5 mg/dL
- Cl (9 h): 101.8 meq/L
- DBIL (9 h): 0.074 mg/dL
- GLC (9 h): 197 mg/dL
- IP (9 h): 9.6 mg/dL
- K (9 h): 3.7 meq/L
- LDH (9 h): 200.6 IU/L
- Na (9 h): 141 meq/L
- PL (9 h): 123.4 mg/dL
- RALB (9 h): 3.4 g/dL
- TBIL (9 h): 0.1 mg/dL
- TC (9 h): 63.6 mg/dL
- TG (9 h): 75.8 mg/dL
- TP (9 h): 5.6 g/dL
- gamma-GTP (9 h): 0.8 IU/L
- TERMINAL_BW (24 h): 231.8 g
- APTT (24 h): 20 s
- Bas (24 h): 0%
- Eos (24 h): 1%
- Fbg (24 h): 234 mg/dL
- Hb (24 h): 13.3 g/dL
- Ht (24 h): 38.9%
- Lym (24 h): 80%
- MCH (24 h): 21.7 pg
- MCHC (24 h): 34.2%
- MCV (24 h): 63.6 fL
- Mono (24 h): 3%
- Neu (24 h): 15.4%
- PT (24 h): 12.7 s
- Plat (24 h): 126.9 x10_4/uL
- RBC (24 h): 612 x10_4/ul
- Ret (24 h): 6.8%
- WBC (24 h): 103.2 x10_2/uL
- KIDNEY_L (24 h): 1 g
- KIDNEY_R (24 h): 1 g
- KIDNEY_TOTAL (24 h): 2 g
- LIVER (24 h): 11.1 g
- A/G (24 h): 1.6
- ALP (24 h): 978 IU/L
- ALT (24 h): 34.2 IU/L
- AST (24 h): 68 IU/L
- BUN (24 h): 14.6 mg/dL
- CRE (24 h): 0.4 mg/dL
- Ca (24 h): 10.6 mg/dL
- Cl (24 h): 102.4 meq/L
- DBIL (24 h): 0.098 mg/dL
- GLC (24 h): 209 mg/dL
- IP (24 h): 8.3 mg/dL
- K (24 h): 4 meq/L
- LDH (24 h): 230.4 IU/L
- Na (24 h): 140 meq/L
- PL (24 h): 142.8 mg/dL
- RALB (24 h): 3.5 g/dL
- TBIL (24 h): 0.1 mg/dL
- TC (24 h): 67.8 mg/dL
- TG (24 h): 122.6 mg/dL
- TP (24 h): 5.6 g/dL
- gamma-GTP (24 h): 1.4 IU/L
